This is an account of results in the METLIN SMRT retention time set (Domingo-Almenara et al. 2019).

Molecules are shown by their SMILES.

The data set is described as follows: gradient 5% acetonitrile 3 min, to 50% in 2 min, to 85% in 15 min, held 3 min, 100 µL/min. The conditions noted are these: column: Zorbax Extend-C18 2.1 x 50 mm; eluents: water / acetonitrile, 0.1% formic acid. In outline:
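Pure standards were run in mixtures of ~100 molecules by HPLC coupled to a quadrupole time-of-flight mass spectrometer. The column was a Zorbax Extend-C18 (2.1 × 50 mm, 1.8 μm) at 100 μL/min, with water and acetonitrile each containing 0.1% formic acid, in positive and negative ionization mode. Dead and dwell volumes were 40 μL and 900 μL. Retention time was taken from computationally picked adduct peaks, each manually inspected, with data collected over 3 months.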
`O=C(c1cc(-c2ccccn2)n[nH]1)N1CCCC(C(=O)N2CCc3ccccc3C2)C1` (configuration not stated) had an RP-LC retention time of 688 s.

`CC1CCc2nc3ncn(CC(=O)NCCC4=CCCCC4)c(=O)c3cc2C1` (configuration not stated) came in with an RP-LC retention time of 847 s.

`Cn1nc(-c2nnc(-c3ccc(F)cc3)o2)c2c1CCN(C(=O)Nc1ccc(Cl)cc1)C2` came in with an RP-LC retention time of 936 s.

In turn, `Cc1c(C(=O)NCc2c(F)cccc2F)c(C(F)(F)F)nn1C(C)C` came in with an RP-LC retention time of 867 s.

For `Cn1nc(-c2nnc(-c3ccccc3)o2)c2c1CCN(S(=O)(=O)c1ccc(F)c(Cl)c1)C2`, the RP-LC retention time was 979 s.

`CN1C[C@H](C(=O)N[C@]2(C)O[C@@]3(O)[C@@H]4CCCN4C(=O)[C@H](Cc4ccccc4)N3C2=O)CC2c3cccc4[nH]cc(c34)C[C@H]21` (some centres not stated): the RP-LC retention time turned out to be 683 s.

For the compound `Cc1cc(C)n(-c2ccnc(N3CCC(C(=O)NC(C)c4ccc(F)cc4)CC3)n2)n1` (configuration not stated), the RP-LC retention time came out at 872 s.

Compound `Cc1cc2[nH]c(C(=O)Nc3cc(F)cc(F)c3)c(CN3CCOCC3)c2s1` yielded an RP-LC retention time of 738 s.

`CCCN(CCC)c1nc2cc(C(=O)OC)ccc2c(=O)n1-c1ccccc1` returned an RP-LC retention time of 1320 s.

The compound `COc1ccccc1NC(=O)Cn1cnc2nc(N3CCCC(C(=O)NC4CC4)C3)sc2c1=O` (configuration not stated) gave an RP-LC retention time of 681 s.

The compound `CC(C)c1ccc(NC(=O)C(=O)c2cn(CC(=O)N3CCCC3)c3ccccc23)cc1` gave an RP-LC retention time of 1140 s.

`O=C(c1ccc2c(c1)OCO2)N1CCC(c2ccncc2)CC1` came in with an RP-LC retention time of 584 s.

In turn, `CC(=O)Nc1ccc(C(=O)NC2CCN(c3cc(N4CCCC4)cnn3)C2)cc1` (configuration not stated) displayed an RP-LC retention time of 598 s.

`CC(C)n1c(=O)c(NCc2ccc(N3CCCCC3)cc2)nc2ccncc21` returned an RP-LC retention time of 554 s.

In turn, `COc1cn2c(cc1=O)C(=O)N(CCNC(=O)c1cc(=O)c3ccccc3o1)CC2` yielded an RP-LC retention time of 562 s.

As for `Cn1nnc2cc(CNC(=O)c3cccc(Cl)c3)ccc21`, the RP-LC retention time is 715 s.

In turn, `Cc1ccc(Cl)cc1N1CCN(S(=O)(=O)c2nn(C)cc2C(=O)NCCN(C)C)CC1` gave an RP-LC retention time of 732 s.

The compound `COc1cc(OC)cc(-c2nc(-c3cccc(-c4ccn[nH]4)c3)no2)c1` registered an RP-LC retention time of 1010 s.

As for `O=C(NCc1cccnc1)C1CCN(S(=O)(=O)c2ccc(-c3noc(C4CC4)n3)cc2)CC1`, the RP-LC retention time turned out to be 659 s.

Take `CCn1c(=O)c(SCC(=O)N2CCN(c3ccccn3)CC2)nc2ccccc21`: the RP-LC retention time is 612 s.

Compound `CCCCN1CCN(C(=O)c2cnc(-c3ccccc3)nc2-c2ccncc2)CC1` registered an RP-LC retention time of 638 s.

Compound `Cc1nc(-c2csc(S(=O)(=O)N3CCCC(C(=O)NCc4ccc5c(c4)OCO5)C3)c2)no1` (configuration not stated) returned an RP-LC retention time of 880 s.

As to `CCC1Oc2ccc(S(=O)(=O)N3CCC(C(=O)Nc4ccc(C)c(F)c4)CC3)cc2NC1=O` (configuration not stated), the RP-LC retention time stood at 892 s.

The compound `Cc1nc(-c2nc(-c3cccs3)cs2)cn1CC(=O)NCc1ccc(F)cc1` had an RP-LC retention time of 789 s.

`O=C(Nc1ccc2c(c1)OCCO2)C1CCCN(S(=O)(=O)Cc2ccccc2Cl)C1` (configuration not stated) showed an RP-LC retention time of 968 s.

Regarding `Cc1ccc(F)c2c(=O)c3c([nH]c12)CCN(CC(=O)Nc1ccc2c(c1)OCO2)C3`, the RP-LC retention time is 615 s.

In turn, `O=C(NCCC1=CCCCC1)C1CCCN(c2ccc3nncn3n2)C1` (configuration not stated) displayed an RP-LC retention time of 770 s.

`COc1ccc(C)cc1NC(=O)Nc1c(-c2ccc(F)cc2)nc2ccccn12` yielded an RP-LC retention time of 714 s.

With `CCc1ccc(NC(=O)C2CCCN2S(=O)(=O)c2ccc3c(c2)CCCC(=O)N3)cc1` (configuration not stated), the RP-LC retention time worked out at 835 s.

For `COc1ccc(NC(=O)Nc2cccc(-c3ccc(N4CCOCC4)nn3)c2)cc1Cl`, the RP-LC retention time amounted to 715 s.

`CC(C)Cn1c(=O)c2ccccc2n(Cc2nc(-c3ccc(Br)cc3)no2)c1=O` registered an RP-LC retention time of 1300 s.

As to `CCCN1C(=O)C(CC(=O)N2CCN(C)CC2)Sc2ncccc21` (configuration not stated), the RP-LC retention time was 576 s.

The compound `Cc1c(C(=O)NCC(C)C)cnn1-c1ccc(-c2nc(C(C)C)no2)cn1` gave an RP-LC retention time of 1050 s.

`Fc1ccccc1-c1noc(N2CCOCC2)n1`: the RP-LC retention time was 796 s.

Consider `CCc1cc(=O)n(CC(=O)Nc2cccc(C(C)C)c2)c(N2CCOCC2)n1`, for which the RP-LC retention time is 829 s.

`CCC(=O)N1CCc2cc(S(=O)(=O)CCC(=O)N3CCN(c4ccc(C)cc4)C(C)C3)ccc21` (configuration not stated) gave an RP-LC retention time of 704 s.

`N#Cc1cccc(N2C=C(C(=O)N3CCCC3)S(=O)(=O)c3ccccc32)c1`: the RP-LC retention time turned out to be 720 s.

In the case of `COC(=O)c1cccc(NC(=O)NC2CCCN2S(=O)(=O)c2ccc(Cl)cc2)c1` (configuration not stated), the RP-LC retention time worked out at 821 s.

Compound `O=C(Cn1cccc1-c1nc(-c2ccc3c(c2)OCO3)no1)Nc1ccc(F)cc1` showed an RP-LC retention time of 994 s.

In the case of `CC(C)=CCC/C(C)=C/CNCCNC1C2CC3CC(C2)CC1C3` (configuration not stated), the RP-LC retention time was 624 s.

In the case of `CCn1ccnc1N1CCN(C(=O)c2ccccc2C(F)(F)F)CC1`, the RP-LC retention time was determined as 555 s.

In turn, `O=C(Nc1ccc2c(c1)OCCO2)C1CCN(c2cnc3nccnc3c2)CC1` returned an RP-LC retention time of 666 s.

Consider `COC(=O)C1C(=O)C2=C(CC1C)NC(C)=C(C(=O)OC(C)C)C2c1cccc(F)c1` (configuration not stated), for which the RP-LC retention time came out at 951 s.

Turning to `CCOc1cc(C(=O)N2CCN(c3cc(-c4cccs4)[nH]n3)CC2)cc(OCC)c1OCC`, the RP-LC retention time turned out to be 907 s.

`C=CCNC(=O)CCc1c(-c2ccc(F)cc2)nc2ccccn12`: the RP-LC retention time came out at 589 s.

`Cc1ccc2c(C(=O)N3CCN(C4CCCCC4)CC3)cc(NC(=O)C3CCC3)cc2n1` returned an RP-LC retention time of 556 s.

In turn, `Cn1nc(-c2ccccc2)nc1C1CN(C(=O)NCC2CCCO2)C1` (configuration not stated) yielded an RP-LC retention time of 625 s.

Regarding `CCc1noc(NC(C)=O)c1-c1ccc(C)c(S(=O)(=O)NCc2ccc(F)cc2)c1`, the RP-LC retention time stood at 814 s.

Regarding `CC(=O)Nc1ccc(OC[C@](C)(O)C(=O)Nc2ccc([N+](=O)[O-])c(C(F)(F)F)c2)cc1`, the RP-LC retention time worked out at 858 s.

Take `O=C(CSc1ccc(N2CCCC(C(=O)NC3CC3)C2)nn1)Nc1cccc(F)c1` (configuration not stated): the RP-LC retention time worked out at 611 s.

In turn, `CCN(C(=O)CCc1ccccc1)c1nc(-c2ccccc2)cs1` displayed an RP-LC retention time of 1320 s.

With `COc1cc(NC(=O)CN2C(=O)C(C)(C)c3cc(C)ccc32)cc(OC)c1OC`, the RP-LC retention time stood at 823 s.

`CCn1ccc2cc(S(=O)(=O)N3CCC(C(=O)NC(C)Cc4ccco4)CC3)ccc21` (configuration not stated): the RP-LC retention time amounted to 905 s.

`O=C(c1ccco1)N1c2ccccc2CC1c1nnc(C2CCOCC2)o1` (configuration not stated) returned an RP-LC retention time of 729 s.

`COc1ccc(Cl)cc1S(=O)(=O)N1CCC(n2cnnc2C(C)C)CC1` displayed an RP-LC retention time of 732 s.

`CCC1CN(C(=O)Nc2ccc3c(c2)OCCO3)c2ccccc2O1` (configuration not stated) showed an RP-LC retention time of 966 s.

Take `CN(C)c1ccc(CNC(=O)CCCN2C(=O)CCn3nc(-c4cccn4C)cc32)cc1`: the RP-LC retention time is 610 s.

As to `Cc1nc(-c2ccc(-c3noc(-c4ccncc4)n3)cc2)cs1`, the RP-LC retention time was 1050 s.

As for `O=C(CCc1ccc2c(c1)CN(S(=O)(=O)c1cccc3nsnc13)CCO2)NC1CC1`, the RP-LC retention time was 756 s.

Compound `CCOC(=O)N1CCN(c2ncc(S(=O)(=O)c3ccc(C(C)C)cc3)c(N)n2)CC1` gave an RP-LC retention time of 1030 s.

`COc1cc(Cl)c(C)cc1NC(=O)C1CCCN(c2ncnc3c2nc2n3CCCCC2)C1` (configuration not stated): the RP-LC retention time was 996 s.

Compound `Cc1cc(=O)n(CC(=O)NCc2cccs2)c(N(C)Cc2ccccc2)n1` showed an RP-LC retention time of 698 s.

For `Cc1nc(Nc2ccc(F)cn2)sc1C(=O)NCCc1ccc(Cl)cc1`, the RP-LC retention time was determined as 936 s.

Compound `Cc1ccc(-c2ccc(N3CCCC(C(=O)NCCN4CCC(C)CC4)C3)nn2)cc1` (configuration not stated) registered an RP-LC retention time of 594 s.

Turning to `Cc1nccn1C1CN(S(=O)(=O)c2cccc3cccnc23)C1`, the RP-LC retention time is 571 s.

Consider `Cc1noc(-c2ccc(-n3cnc(C(=O)NC4CCCCCC4)c3)nc2)n1`, for which the RP-LC retention time is 896 s.

`Cc1ccccc1Nc1c(-c2ccc(N(C)C)cc2)nc2cnccn12` gave an RP-LC retention time of 833 s.

Regarding `CN(CCNC(=O)c1ccc(CN2C(=O)CCn3nccc32)cc1)C1CCCCC1`, the RP-LC retention time was 599 s.

As to `CC(C)NC(=O)c1cccc2c1CCN2C(=O)C1CC1`, the RP-LC retention time was found to be 700 s.

Compound `Cc1c(N2CCCC2)cc2c(c1NC(=O)c1ccccc1Cl)C(C)(C)CC2(C)C` gave an RP-LC retention time of 874 s.

In the case of `COc1ccc(-c2noc(Cn3ccn(-c4cc(C)cc(C)c4)c(=O)c3=O)n2)cc1`, the RP-LC retention time stood at 870 s.

As to `O=S(=O)(NC1CCCCC1)c1ccc2c(c1)-c1oncc1CO2`, the RP-LC retention time turned out to be 673 s.

Compound `CC[C@H](C)[C@H](NC(=O)N1C[C@@H]2C[C@@H](C1)c1cccc(=O)n1C2)C(=O)O` displayed an RP-LC retention time of 598 s.

Regarding `COc1cccc(-c2nc(-c3ccc4nnn(C(C)C)c4c3)no2)c1`, the RP-LC retention time stood at 1150 s.

`COC(=O)c1cc(OC)c(OC)cc1NC(=O)CCc1ccc(C)o1` had an RP-LC retention time of 919 s.

Turning to `Clc1nccc2c1ccc1ccccc12`, the RP-LC retention time amounted to 1140 s.

The compound `Cc1cc(NC(=O)c2ccc3c(c2)OCO3)sn1` gave an RP-LC retention time of 682 s.
